Assay results as given in ChEMBL document CHEMBL4732255, “Evaluation of the antiproliferative activity of 106 marine microbial metabolites against human lung cancer cells and potential antiproliferative mechanism of purpuride G” (Bioorg Med Chem Lett, 2021).

Tests used:
A549 [1] = experiment: Antiproliferative activity against human A549 cells assessed as cell viability at 50 uM measured after 72 hrs by sulforhodamine B assay; format: functional; details: read-out: Activity
NCI-H157 [2] = experiment: Antiproliferative activity against human NCI-H157 cells assessed as reduction in cell viability measured after 72 hrs by sulforhodamine B assay; format: functional, cell-based; details: NCI-H157, 72 h
A549 [3] = experiment: Antiproliferative activity against human A549 cells assessed as reduction in cell viability measured after 72 hrs by sulforhodamine B assay; format: functional, cell-based; details: A549, 72 h
NCI-H157 [4] = experiment: Antiproliferative activity against human NCI-H157 cells assessed as cell viability at 50 uM measured after 72 hrs by sulforhodamine B assay; format: functional; details: read-out: Activity
U-87 MG = experiment: Antiproliferative activity against human U-87MG cells assessed as reduction in cell viability incubated for 72 hrs by sulforhodamine B assay; format: functional, cell-based, U-87MG ATCC
U-251 = experiment: Antiproliferative activity against human U-251 cells assessed as reduction in cell viability incubated for 72 hrs by sulforhodamine B assay; format: functional, cell-based; details: U-251, 72 h
HL-60 = experiment: Antiproliferative activity against human HL-60 cells assessed as reduction in cell viability incubated for 72 hrs by sulforhodamine B assay; format: functional, cell-based; details: HL-60, 72 h

SMILES	IC50 (NCI-H157 [2])	IC50 (A549 [3])	IC50 (U-87 MG)	IC50 (U-251)	IC50 (HL-60)	viability at 50 µM (A549 [1])	viability at 50 µM (NCI-H157 [4])
CC(C)[C@@H](C)/C=C/[C@@H](C)[C@H]1CC[C@H]2C3=CC=C4C[C@@H](O)CC[C@]4(C)[C@H]3CC[C@]12C [ERGOSTEROL]	23.3 µM	19.2 µM	–	–	–	< 50%	< 50%
C[C@H]1Oc2c(c(O)c3c4c(c(O)ccc24)OC3=O)C1(C)C	41.9 µM	42.9 µM	–	–	–	< 50%	< 50%
C=C[C@@]1(C)C=C(C)[C@@H]2[C@@H]3[C@H](Oc4ccc(cc4)C[C@@H]4C(=O)NC(=O)[C@@H]4C(=O)[C@H]31)[C@@H]1[C@@H](C)C[C@@H](C)C[C@]12C	38.5 µM	10.3 µM	–	–	–	< 50%	< 50%
C=C[C@@]1(C)C=C(C)[C@@H]2[C@@H]3[C@H](Oc4ccc(cc4)C[C@]4(OC)C[C@H](C(=O)N4)C(=O)[C@H]31)[C@@H]1[C@@H](C)C[C@@H](C)C[C@]12C	19.6 µM	25.2 µM	–	–	–	< 50%	< 50%
Cc1cc(O)cc(Oc2cc(C)cc(O)c2)c1 [DIORCINOL]	20.2 µM	31.6 µM	–	–	–	< 50%	< 50%
C=C[C@@]1(C)C=C(C)[C@@H]2[C@@H]3[C@H](Oc4ccc(cc4)C[C@]45NC(=O)/C(=C(/O)[C@H]31)[C@H]4[C@@H]1C(=O)C(C)=C3[C@H](C)[C@@H](C)O[C@@]3(O)[C@]1(O)O5)[C@@H]1[C@@H](C)C[C@@H](C)C[C@]12C	22.3 µM	12.3 µM	–	–	–	< 50%	< 50%
CO[C@@]1(C)N(C[C@@H](O)c2ccccc2)C(=O)c2cc3c4ccccc4n(C)c3c(=O)n21	22.9 µM	44.3 µM	–	–	–	< 50%	< 50%
CC1=C[C@@]2(C)[C@@H]3C(=O)[C@]4(C[C@@H]2O)C[C@](O)(Cc2ccc(cc2)O[C@H]2[C@H]3[C@@H]1[C@]1(C)C[C@H](C)C[C@H](C)[C@@H]21)NC4=O	–	–	–	–	7.4 µM	–	–
CC1=C([C@H](C)[C@@H](C)OC=O)C(=O)C2=C(C1=O)[C@@H]1O[C@H](C)[C@@H](C)c3c(C)c(O)cc(c31)O2 [CITRININ H1]	32.4 µM	20.9 µM	–	–	–	< 50%	< 50%
CC1=C[C@]2(C)C(=O)C[C@]34C[C@](O)(Cc5ccc(cc5)O[C@H]5[C@@H]([C@@H]1[C@]1(C)C[C@H](C)C[C@H](C)[C@@H]51)[C@H]2C3=O)NC4=O	–	–	1.06 µM	1.28 µM	–	–	–
CO[C@@]1(C)N(/C=C/c2ccccc2)C(=O)c2cc3c4ccccc4n(C)c3c(=O)n21	20.2 µM	21.6 µM	–	–	–	< 50%	< 50%
CC1=C[C@]2(C)[C@H](O)C[C@]34C[C@](O)(Cc5ccc(cc5)O[C@H]5[C@H]([C@H]2C3=O)[C@@H]1[C@]1(C)C[C@H](C)C[C@H](C)[C@@H]51)NC4=O	–	–	–	–	14.9 µM	–	–
O=C1c2cc(O)cc(O)c2C(=O)c2c1cc1c(c2O)[C@@H]2CCO[C@@H]2O1	27 µM	45.9 µM	–	–	–	< 50%	< 50%

The remaining compounds from weak to strong by IC50 (NCI-H157 [2]), led by results:

IC50 (NCI-H157 [2])	IC50 (A549 [3])	IC50 (U-87 MG)	IC50 (U-251)	IC50 (HL-60)	SMILES	viability at 50 µM (A549 [1])	viability at 50 µM (NCI-H157 [4])
19.4 µM	48.2 µM	–	–	–	CC(=O)c1nc(C(=O)NCCc2ccccc2)cc2c1[nH]c1ccccc12	< 50%	< 50%
17.8 µM	13.2 µM	–	–	–	CO[C@@]12Cc3ccc(cc3)O[C@H]3[C@@H]4[C@H]5C(=O)[C@](C[C@@H](O)[C@@]5(C)C=C(C)[C@H]4[C@]4(C)C[C@H](C)C[C@H](C)[C@@H]34)(C1)C(=O)N2	< 50%	< 50%
15.1 µM	12.7 µM	–	–	–	CO[C@@]1(C)N(/C=C/c2ccccc2)C(=O)c2cc3c([nH]c4ccccc43)c(=O)n21	< 50%	< 50%
11 µM	21.2 µM	–	–	–	Cn1c2ccccc2c2cc3n(c(=O)c21)[C@@](C)(O)N(CCc1ccccc1)C3=O	< 50%	< 50%
9.8 µM	12.9 µM	–	–	–	CO[C@@]1(C)N(CCc2ccccc2)C(=O)c2cc3c4ccccc4n(C)c3c(=O)n21	< 50%	< 50%
8.6 µM	18.2 µM	–	–	–	CC(=O)c1nc(C(=O)NCCc2ccccc2)cc2c3ccccc3n(C)c12	< 50%	< 50%
8.1 µM	38.4 µM	–	–	–	CO[C@@]1(C)N(/C=C/c2ccccc2)C(=O)C2=C[C@@]3(C(=O)N(C)c4ccccc43)C(=O)N21	< 50%	< 50%
7.2 µM	10.6 µM	–	–	–	CO[C@@]1(C)N(/C=C\c2ccccc2)C(=O)c2cc3c4ccccc4n(C)c3c(=O)n21	< 50%	< 50%
6.5 µM	7.3 µM	12.4 µM	22.8 µM	–	CC1=C[C@@]2(C)[C@@H]3C(=O)[C@]4(C[C@@H]2O)C[C@@](O)(Cc2ccc(cc2)O[C@H]2[C@H]3[C@@H]1[C@]1(C)C[C@H](C)C[C@H](C)[C@@H]21)NC4=O	< 50%	< 50%
3 µM	1.5 µM	–	–	–	COc1cc(O)c2c(c1)C(=O)c1cc(C)cc(O)c1C2=O [PHYSCION]	< 50%	< 50%
2.7 µM	5.7 µM	–	–	–	Cc1cc(O)c2c(c1)C(=O)c1cccc(O)c1C2=O [CHRYSOPHANOL]	< 50%	< 50%
0.9 µM	28.6 µM	–	–	–	O=c1ncc2ncn([C@@H]3O[C@@H](CO)[C@H](O)[C@@H]3O)c2[nH]1	< 50%	< 50%
